Experimental data as given in patent US8178553B2, “Compounds for the treatment of inflammatory disorders” (Schering Corporation, priority 2006, dated 2012).
Where two headings read alike, the source gives them in different places.

Molecular target: T1, purified catalytic domain of recombinant human TACE (rhTACEc) (Homo sapiens, UniProt P78536, N452Q/S266A)
T1 construct: rhTACEc, Residue 215 to 477 with two mutation (S266A and N452Q) and a 6xHis tail; 6xHis (C); made in house; host or cells: baculovirus/Hi5 insect cells
T1 sequence (P78536 215-477 S266A/N452Q): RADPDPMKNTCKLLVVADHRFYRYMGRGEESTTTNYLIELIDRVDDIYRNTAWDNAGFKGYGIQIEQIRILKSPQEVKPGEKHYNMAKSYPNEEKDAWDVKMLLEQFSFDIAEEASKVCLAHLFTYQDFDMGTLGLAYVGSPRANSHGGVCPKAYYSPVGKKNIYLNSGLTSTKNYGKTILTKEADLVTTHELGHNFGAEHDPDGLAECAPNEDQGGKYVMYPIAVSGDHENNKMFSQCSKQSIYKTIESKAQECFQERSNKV
Test: TACE kinetic assay, cleavage of internally quenched fluorescent peptide substrate SPDL-3
Type: biochemical
Protocol: TACE activity is determined by a kinetic assay measuring the rate of increase in fluorescent intensity generated by TACE catalyzed cleavage of an internally quenched peptide substrate (SPDL-3). […] It is purified from the baculovirus/Hi5 cells expression system using affinity chromatography. […] MCA is (7-Methoxycoumarin-4-yl)acetyl. Dpa is N-3-(2,4-Dinitrophenyl)-L-2,3-diaminopropionyl.
A 50 μl assay mixture contains 20 mM HEPES, pH 7.3, 5 mM CaCl2, 100 µM ZnCl2, 2% DMSO, 0.04% Methylcellulose, 30 μM SPDL-3, 70 pM rhTACEc and a test compound. RhTACEc is pre-incubated with the testing compound for 90 min. at 25° C. Reaction is started by addition of the substrate. […] Rate of enzymatic reaction is shown as Units per second. Effect of a test compound is shown as % of TACE activity in the absence of the compound.

[1] = TACE inhibition, Table 1, read-out: Ki Rating
[2] = Specific TACE inhibitory activity of representative compounds, read-out: Ki

SMILES | Ki [1] [µM] | Ki [2] [µM]
COc1ccc2c(c1)C(=O)N(CC1(CC(=O)N3CCCC3)NC(=O)NC1=O)C2 (stereo not drawn) [Compound 5] | < 0.01 | –
COc1ccc2c(c1)C(=O)N(C[C@@]1(c3ccc(-c4ccc(C(N)=O)nc4)cc3)NC(=O)NC1=O)C2 [Compound 75] | < 0.01 | –
COc1ccc2c(c1)C(=O)N(C[C@@]1(c3ccc(-c4ncccc4C(=O)NC4CC4)cc3)NC(=O)NC1=O)C2 [Compound 62] | < 0.01 | –
COc1ccc2c(c1)C(=O)N(C[C@@]1(c3ccc(-c4ccccc4C(N)=O)cc3)NC(=O)NC1=O)C2 [Compound 51] | < 0.01 | –
COc1ccc2c(c1)C(=O)N(CC1(CC(=O)N3CCN(C)CC3)NC(=O)NC1=O)C2 (stereo not drawn) [Compound 13] | 0.01 to 0.1 | –
COc1ccc2c(c1)C(=O)N(C[C@@]1(c3ccc(-c4cnc(N)c(C(N)=O)c4)cc3)NC(=O)NC1=O)C2 [Compound 68] | < 0.01 | 0.00023
COc1ccc2c(c1)C(=O)N(C[C@@]1(c3ccc(C#Cc4ccccn4)cc3)NC(=O)NC1=O)C2 [Compound 22] | < 0.01 | –
COc1ccc2c(c1)C(=O)N(C[C@@]1(c3ccc(-c4ccc(S(N)(=O)=O)cc4)cc3)NC(=O)NC1=O)C2 [Compound 105] | < 0.01 | –
COc1ccc2c(c1)C(=O)N(CC1(CC(=O)N3CCc4ccccc4C3C3CC3)NC(=O)NC1=O)C2 (stereo not drawn) [Compound 15] | < 0.01 | –
COc1ccc2c(c1)C(=O)N(C[C@@]1(c3ccc(-c4ccnc(C(N)=O)c4)cc3)NC(=O)NC1=O)C2 [Compound 23] | < 0.01 | –
CNC(=O)c1ccc(Oc2ccc([C@]3(CN4Cc5ccc(OC)cc5C4=O)NC(=O)NC3=O)cc2)cc1 [Compound 84] | < 0.01 | 0.004
COc1ccc2c(c1)C(=O)N(C[C@@]1(c3cc4cc(C#N)ccc4o3)NC(=O)NC1=O)C2 [Compound 102] | < 0.01 | –
COc1ccc2c(c1)C(=O)N(C[C@@]1(c3ccc(C(=O)O)cc3)NC(=O)NC1=O)C2 [Compound 100] | < 0.01 | –
COC(=O)c1cc(-c2ccc([C@]3(CN4Cc5ccc(OC)cc5C4=O)NC(=O)NC3=O)cc2)cnc1N [Compound 52] | < 0.01 | –
COc1ccc2c(c1)C(=O)N(C[C@@]1(c3ccc(Oc4cccc(C(=O)N(C)C)c4)cc3)NC(=O)NC1=O)C2 [Compound 88] | < 0.01 | –
COc1ccc2c(c1)C(=O)N(C[C@]1(c3ccc(C#Cc4ccccn4)cc3)NC(=O)NC1=O)C2 [Compound 21] | 0.01 to 0.1 | –
COc1ccc2c(c1)C(=O)N(C[C@@]1(c3ccc(-c4cncc(C(=O)NC5CC5)c4)cc3)NC(=O)NC1=O)C2 [Compound 56] | < 0.01 | –

SMILES | Ki [1] [µM] | Ki [2] [µM]
CCN(CC)C(=O)CC1(CN2Cc3ccc(OC)cc3C2=O)NC(=O)NC1=O (stereo not drawn) [Compound 8] | 0.01 to 0.1 | –
COc1ccc2c(c1)C(=O)N(C[C@]1(c3ccc(C#Cc4cccnc4)cc3)NC(=O)NC1=O)C2 [Compound 95] | 0.01 to 0.1 | –
COc1ccc2c(c1)C(=O)N(C[C@@]1(c3ccc(-c4cnn(C)c4C#N)cc3)NC(=O)NC1=O)C2 [Compound 80] | < 0.01 | –
COc1ccc2c(c1)C(=O)N(C[C@@]1(c3ccc(-c4cncc(C(N)=O)c4)cc3)NC(=O)NC1=O)C2 [Compound 58] | < 0.01 | –
COc1ccc2c(c1)C(=O)N(CC1(CC(=O)NCC(C)C)NC(=O)NC1=O)C2 (stereo not drawn) [Compound 11] | 0.01 to 0.1 | –
COc1ccc2c(c1)C(=O)N(CC1(c3ccc(C(=O)O)cc3)NC(=O)NC1=O)C2 (stereo not drawn) [Compound 32] | < 0.01 | –
COC(=O)c1cccc(Oc2ccc([C@]3(CN4Cc5ccc(OC)cc5C4=O)NC(=O)NC3=O)cc2)c1 [Compound 86] | < 0.01 | –
COc1ccc2c(c1)C(=O)N(C[C@@]1(c3ccc(Oc4cccc(C(N)=O)c4)cc3)NC(=O)NC1=O)C2 [Compound 85] | < 0.01 | 0.00046
COc1ccc2c(c1)C(=O)N(C[C@@]1(c3ccc(-c4cc(C(N)=O)cc(C)n4)cc3)NC(=O)NC1=O)C2 [Compound 67] | < 0.01 | –
COc1ccc2c(c1)C(=O)N(C[C@@]1(c3cc4cc(C(=O)O)cnc4o3)NC(=O)NC1=O)C2 [Compound 39] | < 0.01 | –
COc1ccc2c(c1)C(=O)N(C[C@@]1(c3ccc(-c4cnc(C(=O)NC5CC5)cn4)cc3)NC(=O)NC1=O)C2 [Compound 71] | < 0.01 | –
COc1ccc2c(c1)C(=O)N(C[C@@]1(c3ccc(Oc4ccc(C(=O)N5CCOCC5)cc4)cc3)NC(=O)NC1=O)C2 [Compound 82] | < 0.01 | –
COc1ccc2c(c1)C(=O)N(C[C@@]1(c3ccc(C(=O)N4CCOCC4)cc3)NC(=O)NC1=O)C2 [Compound 99] | < 0.01 | –
COc1ccc2c(c1)C(=O)N(CC1(CC(=O)NC(C)C)NC(=O)NC1=O)C2 (stereo not drawn) [Compound 7] | 0.01 to 0.1 | –
COc1ccc2c(c1)C(=O)N(CC1(c3ccc(-c4ccccc4CCN)cc3)NC(=O)NC1=O)C2 (stereo not drawn) [Compound 96] | 0.01 to 0.1 | –
COc1ccc2c(c1)C(=O)N(C[C@@]1(c3ccc(-c4ncccc4C(=O)N(C)C)cc3)NC(=O)NC1=O)C2 [Compound 63] | < 0.01 | –
